Measured values as given in patent US5486511A, “4-amino-17β-(cyclopropyloxy)androst-4-en-3-one, 4-amino-17β-(cyclopropylamino)androst-4-en-3-one and related compounds as C17-20 lyase and 5α-reductase” (Merrell Dow Pharmaceuticals Inc., priority 1994, dated 1996).

Columns and labels:
human lyase = biological target: T1, human lyase (Homo sapiens, UniProt P05093); assay: Inhibition of human steroid C17,20 lyase (testicular microsomes); type: biochemical
T1 construct: microsomes were isolated from human, cynomolgus monkey, dog, rat or athymic nude mouse testicular tissue; from tissue; host or cells: human testis microsomes (therapeutic orchiectomies)
T1 sequence (P05093 1-508): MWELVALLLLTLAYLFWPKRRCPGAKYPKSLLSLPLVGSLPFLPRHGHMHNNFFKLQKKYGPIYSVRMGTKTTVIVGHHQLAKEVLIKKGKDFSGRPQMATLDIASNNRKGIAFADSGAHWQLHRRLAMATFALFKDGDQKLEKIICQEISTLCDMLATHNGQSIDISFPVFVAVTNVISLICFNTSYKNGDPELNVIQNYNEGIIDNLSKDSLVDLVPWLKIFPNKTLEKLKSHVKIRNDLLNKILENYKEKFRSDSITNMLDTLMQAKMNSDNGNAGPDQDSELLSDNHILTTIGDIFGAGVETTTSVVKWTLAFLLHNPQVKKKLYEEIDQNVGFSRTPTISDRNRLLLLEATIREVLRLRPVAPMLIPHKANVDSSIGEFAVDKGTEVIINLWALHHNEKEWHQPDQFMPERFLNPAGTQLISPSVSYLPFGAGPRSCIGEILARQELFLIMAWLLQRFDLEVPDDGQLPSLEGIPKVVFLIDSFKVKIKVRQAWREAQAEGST
Method: (§1) The activity of the present compounds as inhibitors of steroid C17,20 lyase was established using microsomal preparations of the steroid C17,20 lyase enzyme from human or laboratory animal testes. Human testes used for this purpose were obtained from therapeutic orchiectomies. Specifically, microsomes were isolated from human, cynomolgus monkey, dog, rat or athymic nude mouse testicular tissue. The compound to be tested was dissolved in dimethyl sulfoxide and diluted in 0.05M potassium phosphate buffer to give the desired concentrations of the test compound. The potassium phosphate buffer was at pH 7.4 for the human, monkey and dog lyase assays and at pH 7.2 for the rat and athymic nude mouse lyase assays. Assays also contained 1 mM NADPH, 5 mM glucose-6-phosphate, 1 IU/ml glucose-6-phosphate dehydrogenase (an NADPH regenerating system) and microsomal protein in a total volume of 0.2 mL. Control assays contained all components including dimethyl sulfoxide, but with no test compound. All assays were performed in duplicate. For determination of time dependent C17,20 lyase inactivation, the test compound was incubated with 20 to 60 μg/ml microsomal protein, buffer, and the NADPH regenerating system described above at 34° C. for 0 or 40 minutes. Aliquots (180 μl) were then removed and assayed for enzyme activity by addition to tritiated steroid substrate plus unlabeled steroid substrate to give a 200 μl total assay volume, and were subsequently incubated at 34° C. for 6 minutes. For determination of reversible inhibition by the test compound, the reaction was initiated by addition of substrate. The radiolabeled substrate used for human, cynomolgus monkey and dog lyase was [7-^3 H]-17α-hydroxypregnenolone, 11.2 Ci/mmole, 0.2 μCi total activity per assay. Unlabeled 17α-hydroxypregnenolone was added to give a total concentration of 1.0 μM or 0.3 μM for the human and monkey enzymes, and 0.08 μM for the canine enzyme. […] The radiolabeled substrate used for the rodent enzymes were [1,2-^3 H]-17α-hydroxyprogesterone (40-57 Ci/mmol; 0.2 μCi per assay). Unlabeled 17α-hydroxyprogesterone was added to give a total concentration of 0.1 μM for the rat enzyme (Km =0.1 μM) and 0.03 μM (Km =0.03 μM) for the athymic nude mouse enzyme. The total assay volume was 200 μl. The complete assay was incubated at 34° C. for 6 minutes. Each reaction was stopped by the addition of 5 ml of chloroform:methanol (2:1). Carrier steroids representing substrate and products and 0.8 ml of water were also added at this time. The carrier steroids for the human, monkey and dog lyase assays were 17α-hydroxypregnenolone, dehydroepiandrosterone and androstenediol. Carrier steroids for the rodent lyase assays were 17α-hydroxyprogesterone, androstenedione, and testosterone. The steroids were extracted by the method of Moore and Wilson (Methods in Enzymol., eds. O'Malley, B. W. and Hardman, J. G. 36, 1975, p. 466-474), the organic phase containing the steroids was evaporated using nitrogen gas, the residues dissolved in 18% tetrahydrofuran (v/v) in hexane, and the steroids were separated by HPLC on a Si60 (5 um) column (250×4 mm) using a gradient of 18-22% tetrahydrofuran (v/v) in hexane. Radioactivity in the steroid peaks was measured by a Radiomatic Model HS Flo-One detector.
The enzyme activity for each incubate was calculated from the percent conversion of substrate to products, and the results were expressed as percent inhibition of control. […] The Ki and kinact for time dependent inhibitors were determined by graphical analysis of Kitz-Wilson plots. When the compounds of the present invention were tested in the above procedure using human lyase, the following results were observed: […]

[1] = biological target: T2, cynomolgus monkey C17,20 lyase (Macaca fascicularis, UniProt Q2XVA1); assay: Inhibition of cynomolgus monkey steroid C17,20 lyase (testicular microsomes), time dependent, Kitz-Wilson; type: biochemical
T2 construct: microsomes were isolated from human, cynomolgus monkey, dog, rat or athymic nude mouse testicular tissue; from tissue; host or cells: cynomolgus monkey testis microsomes
T2 sequence (Q2XVA1 1-508): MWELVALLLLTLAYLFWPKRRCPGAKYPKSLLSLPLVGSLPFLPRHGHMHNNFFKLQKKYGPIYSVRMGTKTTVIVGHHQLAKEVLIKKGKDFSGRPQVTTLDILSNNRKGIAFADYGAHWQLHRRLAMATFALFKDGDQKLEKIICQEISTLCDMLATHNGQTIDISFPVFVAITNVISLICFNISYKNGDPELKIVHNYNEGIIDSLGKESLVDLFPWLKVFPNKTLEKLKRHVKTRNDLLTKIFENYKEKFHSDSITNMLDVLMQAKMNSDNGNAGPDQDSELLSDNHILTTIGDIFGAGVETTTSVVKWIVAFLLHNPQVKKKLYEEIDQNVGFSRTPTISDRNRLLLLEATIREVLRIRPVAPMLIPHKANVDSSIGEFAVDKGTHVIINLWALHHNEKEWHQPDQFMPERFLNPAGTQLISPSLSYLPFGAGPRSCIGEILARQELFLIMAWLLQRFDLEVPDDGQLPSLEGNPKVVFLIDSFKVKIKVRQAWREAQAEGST
Method: as §1, with “Carrier steroids representing substrate and products and 0.8 ml of water were also added at this time. The carrier steroids for the human, monkey and dog lyase assays were 17α-hydroxypregnenolone, dehydroepiandrosterone and androstenediol. Carrier steroids for the rodent lyase assays were 17α-hydroxyprogesterone, androstenedione, and testosterone. The steroids were extracted by the method of Moore and Wilson (Methods in Enzymol., eds. O'Malley, B. W. and Hardman, J. G. 36, 1975, p. 466-474), the organic phase containing the steroids was evaporated using nitrogen gas, the residues dissolved in 18% tetrahydrofuran (v/v) in hexane, and the steroids were separated by HPLC on a Si60 (5 um) column (250×4 mm) using a gradient of 18-22% tetrahydrofuran (v/v) in hexane.” left out
The enzyme activity for each incubate was calculated from the percent conversion of substrate to products, and the results were expressed as percent inhibition of control. […] The Ki and kinact for time dependent inhibitors were determined by graphical analysis of Kitz-Wilson plots. […]

| Structure (SMILES) | inhibition at 1 µM (human lyase; preincubation 0 min) | inhibition at 1 µM (human lyase; preincubation 40 min) | inhibition at 10 µM (human lyase; preincubation 0 min) | inhibition at 10 µM (human lyase; preincubation 40 min) | Ki [1] | kinact [1] |
| --- | --- | --- | --- | --- | --- | --- |
| C[C@]12CC[C@H]3[C@@H](CCC4=C(N)C(=O)CC[C@@]43C)[C@@H]1CC[C@@H]2OC1CC1 [Compound 2, 4-Amino-17β-(cyclopropyloxy)androst-4-en-3-one] | 79% | 86% | 96% | 99% | 286 nM | 0.0007 s⁻¹ |
| C[C@]12CC[C@H]3[C@@H](C=CC4=C(N)C(=O)CC[C@@]43C)[C@@H]1CC[C@@H]2OC1CC1 [Compound 1, 4-Amino-17β-(cyclopropyloxy)androsta-4,6-dien-3-one] | 69% | 84% | 95% | 98% | 339 nM | 0.0009 s⁻¹ |
